From US12564206B2, “Multi-supplement food-additive” (THE GOVERNING COUNCIL OF THE UNIVERSITY OF TORONTO, priority 2019, dated 2026)
Like-named read-outs stand apart in the source and are kept apart here.

Experiments:
[1] = Stability of spray solutions on storage; details: for retained in spray solution: after 2 months of storage
Method: Formulation and Storage of Spray Solution: Seven sets of spray solutions were formulated, containing folic acid, vitamin B12, iodine, sodium ascorbate, sodium citrate and/or sodium carbonate, as described in Table 1. The stability of the solutions was monitored for 2 months at 25, 35, and 45 degrees C.
(§1) Folic Acid Analysis: For the spray solution, samples were diluted with 0.1 M Na2CO3 at ratio 1:1000 v/v and the absorbance of the resulting solution was read at 285 nm. For the salt samples, 5 g aliquots were dissolved in 0.1 M Na2CO3 (10 mL) in a falcon tube. The solution was mixed on a vortex mixer for 2 minutes and filtered with a 0.45 μm syringe filter. The absorbance of the filtrate was immediately read at 285 nm.
(§2) Iodine Analysis: Method 33.149, described by the Association of Official Analytical Chemists (AOAC), was used for iodine quantification in salt and spray solutions (Association of Official Analytical Chemists, 1984). In this method, iodate is reduced to iodine and titrated with sodium thiosulfate using a starch indicator.
Vitamin B12 Analysis: The iron-B12 premix was pulverized with a mortar and pestle. The pulverized premix (5 g) was weighed into 50 mL falcon tube, and 10 mL of RO water was added and mixed with a vortex mixer for 2 minutes. This was centrifuged for 2 minutes. The supernatant was filtered with a 0.45 micron filter. Vitamin B12 in the filtrate was quantified using UHPLC-MS.

[2] = Stability of folic acid and iodine in fortified salt on storage; details: for micronutrient retained in quadruple fortified salt: 6 months storage at 25, 35 and 45 degrees C, 60-70% RH, all cases
Method: However, for comparative study, a solution containing folic acid, iodine and vitamin B12 (spray solution 2 in Table 1) was also used. The solutions (2.5 mL) were sprayed on salt (1 kg) inside a ribbon blender and thoroughly mixed for 20 minutes. The salt samples were dried overnight. The dried salt was returned to the ribbon blender and mixed with premix samples for 2 minutes. Iron premix (i.e. particles containing iron without any B12 or other fortificants) and three of the four iron-B12 premixes were used (adding B12 to TiO2 was not further tested). The target concentrations of the fortificants were 1000 microgram/gram iron, 50 microgram/gram iodine, 25 microgram/gram folic acid and 0.25 microgram/gram vitamin B12.
The fortified salts were divided by solid sample splitter glassware into three portions. Each portion was stored at ambient conditions (25 degrees C.), 35 degrees C. and 60-70% RH, and 45 degrees C. and 60-70% RH. The stability of folic acid and iodine in the salt was monitored over a period of six months.
as §1, §2

[3] = L*a*b* colour analysis of salt sprayed with folic acid; assay type: physicochemical
Method: While this example was successful, it was observed that the addition of folic acid by spraying can impact the colour of the salt (i.e. a yellow color is observed), which may impact the acceptance of the salt. Accordingly, the inclusion of the folic acid in the premix was evaluated. […] The two other premix samples contained an iron micronutrient, folic acid, and vitamin B12; in one of these two, all of the micronutrients were in the core of the premix, while in the other, folic acid was separated from the iron micronutrient and vitamin B12 by a layer of TiO2.

[4] = Accelerated kinetic study of folic acid and iodine degradation in spray solution; assay type: physicochemical; details: for degradation constant in spray solution: first order; for activation energy for degradation in the solution: Arrhenius plot
Method: An accelerated kinetic study was conducted to evaluate the stability of the micronutrients in the premixes and solution. The stability of folic acid and iodine in the spray solution was evaluated, and the stability of B12 in the various premixes was evaluated. The solution and premix were stored at 50, 60, 70 and 80 degrees C. for 7 days. For the solution, samples (250 mL) were stored in 400 mL Fisherbrand Glass Bottles. About 1 mL of the samples were collected from the bottles at days 1, 3, 5 and 7, and stored at −20 degrees C. before analysis. For the premix, 1 g was weighed into aluminium weighing dishes. At days 1, 3, 5 and 7, samples were pulverized in a mortar and pestle. Vitamin B12 was extracted with 0.1 M Na2CO3. The crude extract was filtered (0.45 um) and stored at −20 degrees C. before analysis.

[5] = Earlier double fortified salt, storage stability; assay type: physicochemical; details: 5 month period, ambient conditions
Source text: Applicant has previously attempted to develop folic acid and iodine spray solutions to investigate the stability of triple fortified salt containing iodine, folic acid and microencapsulated ferrous fumarate.

[6] = 30 min, 2 mg/mL
Method: The effect of boiling on the stability of folic acid and vitamin B12 was assessed, in order to mimic food preparation. A known amount of folic acid (0.5 g) was weighed into 250 ml of boiling water. Boiling was continued for 30 minutes. At 1, 5, 10, 15, 20, 25, and 30 minutes, the solution was made up to 250 ml, and then 1 ml of the solution was measured out into a centrifuge vial. The same procedure was followed for B12.

[7] = cited from earlier work
[8] = Stability of vitamin B12 in iron-B12 premix on storage; assay type: physicochemical; details: room temperature, six months; premix made by three approaches (core, spray, HPMC)
Source text: Production of Iron-B12 Premix: Given the instability of vitamin B12 in the spray solutions (as described below with respect to FIG. 4), vitamin B12 was removed from the spray solutions and incorporated into separate particles with the iron micronutrient, as a multi-supplement food-additive, described above (also referred to herein as an ‘iron-B12 premix’). For the iron-B12 premix, 25% TiO2 was used for color masking, and 5% HPMC and 5% soy stearin as the encapsulating coating. […] The stability of vitamin B12 in each iron-B12 premix was evaluated for six months.
This was centrifuged for 2 minutes.

[9] = 12.5 microgram/gram folic acid in salt
[10] = 25 microgram/gram folic acid in salt

| Molecule | stability in solution [1] | retained in spray solution [1] | micronutrient retained in quadruple fortified salt [2] | degradation constant in spray solution ([4]; 60 degrees C) [day⁻¹] | degradation constant in spray solution ([4]; 70 degrees C) [day⁻¹] | degradation constant in spray solution ([4]; 80 degrees C) [day⁻¹] | activation energy for degradation in the solution [4] [kcal/mol] | micronutrient retained in double fortified salt [5] [%] | solubility in water [7] | further results |
| --- | --- | --- | --- | --- | --- | --- | --- | --- | --- | --- |
| Nc1nc2ncc(CNc3ccc(C(=O)N[C@@H](CCC(=O)O)C(=O)O)cc3)nc2c(=O)[nH]1 [folic acid] | very stable | ~80% | 74-97% | 0.0349 | 0.0411 | 0.0531 | 4.924 | 100 | sparingly soluble | improvement of folic acid stability with vitamin B12 in core vs other parts of the premix ([2]; QFS, six months, all temperatures): 11-15%; L* of salt [3, 9]: 95.43; a* of salt [3, 9]: −1.53; b* of salt [3, 9]: 8.44; L* of salt [3, 10]: 94.27; a* of salt [3, 10]: −2.92; b* of salt [3, 10]: 13.50; retained after boiling [6]: About 93% |
| II [iodine, potassium iodate] | – | about 90% | 85-100% | 0.0337 | 0.0432 | 0.0568 | 6.092 | 100 | – | stability in solution ([1]; the spray solutions (FIG. 4)): very stable; improvement of iodine stability with vitamin B12 in core vs other parts of the premix ([2]; QFS, 45 degrees C, six months): 6-15% |
| vitamin B12 | very stable | – | – | – | – | – | – | – | very soluble | vitamin B12 lost in spray solution ([1]; spray solution at lower pH (8), 2 months storage): > 50%; vitamin B12 lost in spray solution ([1]; spray solution pH 9, 2 months storage at 45 degrees C and 70% RH): ~100%; B12 retained in iron-B12 premix [8]: over 97% |
